# Data reported in patent US10557124B2, “Compositions and methods for obtaining stem cell derived lung tissue, and related uses thereof” (The Regents of the University of Michigan, priority 2015, dated 2020).
# Key:
# Format in all cases: cell-based, human
# [1] = system: anterior foregut endoderm (hESC-derived, ActivinA then NOG/SB); assay: qRT-PCR of SHH, NKX2.1, PAX8 in foregut endoderm monolayer cultures treated with FGF/HH modulators; conditions: for SHH expression / NKX2.1 expression / PAX8 expression: vs foregut control (FGF2: vs untreated endoderm controls), FGF2 50/500 ng/mL; for NKX2.1 expression / PAX8 expression: Sant-2 10 μM
# From the text: Many signaling pathways are important for lung induction and development (see, e.g., Wong A P, et al., Nat Biotechnol. 2012 Aug. 26; Huang S X L, et al., Nature; 2013 Dec. 1; 1-11; Firth A L, et al., Proceedings of the National Academy of Sciences. 2014 Apr. 29; 111(17):E1723-30; Mou H, et al., Cell Stem Cell. 2012 Apr. 6; 10(4):385-97; Ghaedi M, et al., J. Clin. Invest. 2013 Nov. 1; 123(11):4950-62; Longmire T A, et al., Cell Stem Cell. 2012 Apr. 6; 10(4):398-411; Rankin S A, Zorn A M. Gene Regulatory Networks Governing Lung Specification. J Cell Biochem. 2014 Mar. 19; Morrisey E E, et al., Developmental Cell. Elsevier Inc; 2010 Jan. 19; 18(1):8-23; Min H, et al., Genes & Development. 1998 Oct. 15; 12(20):3156-61; Weaver M, et al., Development. 2000 June; 127(12):2695-704). […] 2011 Feb. 3; 470(7332):105-9; Wells J M, et al., Development. 2014 February; 141(4):752-60; Motoyama J, et al., Nat Genet. 1998 September; 20(1):54-7) and Hh signaling is important for lung mesenchyme proliferation in vivo (see, e.g., Bellusci S, et al., Development. 1997 January; 124(1):53-63). […] It has been reported that approximately 85-95% of cells are endoderm, but a portion of the remaining cells are mesodermal and this small mesodermal population is maintained in the spheroids and organoids (see, e.g., Spence J R, et al., Nature. 2011 Feb. 3; 470(7332):105-9; McCracken K W, et al., Nature; 2014 Oct. 29; 1-19; Green M D, et al., Nat Biotechnol.; 2011 Feb. 27; 1-7) (FIG. 4). Therefore, based on mouse and hPSC studies, it was hypothesized that FGF and/or HH signaling would induce an NKX2.1+ lung lineage in anterior foregut endoderm. To test this hypothesis experiments initially focused on adherent endoderm monolayer cultures to optimize induction conditions. Cultures were treated for 4 days with ActivinA followed by an additional 4 days with NOG/SB (referred to as Foregut). Controls consisted of ActivinA treatment only followed by no additional growth factors (Endoderm controls), or ActivinA followed by NOG/SB, followed by no additional factors (Foregut controls). All experimental groups were compared to both endoderm and foregut controls (FIG. 6). The ability of FGF2 to induce SHH, NKX2.1 and PAX8 was first tested by exposing foregut cultures to low and high concentrations of FGF2 (50,500 ng/mL) (FIG. 6A). […] It was also observed that dual NOG/SB inhibition in endoderm cultures induced robust NKX2.1 and PAX8 expression without adding FGF2 (FIG. 1B, 6A). Thus, it was desired to determine if NKX2.1 expression in foregut cultures was due to endogenous FGF and/or HH signaling. To test this, the FGF or HH pathway was inhibited with small molecules SU5402 (SU, 10 μm) and Sant-2 (10 μm) respectively (FIG. 6B-C). Treating foregut cultures with the FGF inhibitor SU caused a significant, robust reduction in PAX8 and a modest reduction in SHH, while NKX2.1 expression was unchanged compared to foregut control (FIG. 6B). […] To test if HH signaling was able to induce NKX2.1 in foregut cultures, the Smoothened agonist, SAG (1 μM), was added to foregut cultures. The addition of SAG induced a 6.5 fold increase of NKX2.1 expression above foregut controls (FIG. 6D).
# This combination caused an additional increase in NKX2.1 expression (21 fold vs. 6.5 fold with SAG only, when compared to foregut) and a concomitant decrease in PAX8 mRNA (FIG. 6D).
# (§1) After differentiation into definitive endoderm, foregut endoderm was differentiated, essentially as described (see, e.g., Green M D, et al., Nat Biotechnol. Nature Publishing Group; 2011 Feb. 27; 1-7). Briefly, cells were incubated in foregut media: Advanced DMEM/F12 plus N-2 and B27 supplement, 10 mM Hepes, lx L-Glutamine (200 mM), lx Penicillin-streptomycin (5,000 U/mL, all from Life Technologies) with 200 ng/mL Noggin (NOG, R&D Systems) and 10 μM SB431542 (SB, Stemgent) for 4 days. […]
# [2] = system: foregut spheroids (NOG+SB+FGF4+Ch); assay: qRT-PCR of foregut spheroids generated with addition of HH agonist SAG; conditions: SAG added to NOG+SB+FGF4+Ch spheres; compared to spheres without SAG
# Experimental: Based on the observations that stimulating HH and inhibiting FGF signaling strongly enhances NKX2.1 expression while reducing PAX8 expression (FIG. 5), multiple conditions of HH activation and FGF inhibition to induce NKX2.1^HI/PAX8^LO foregut spheroids (NOG/SB/F/Ch) were tested (FIG. 8). […] Therefore, several conditions were also tested that stimulated HH signaling using SAG only, without FGF inhibition. […] Additionally, nuclear NKX2.1 protein expression was found in ECAD+ epithelium which co-expressed endoderm epithelial markers FOXA2 and SOX2 (FIG. 10B, C, FIG. 11). […] Thus, concomitant down-regulation of SOX2 and increased NKX2.1 observed in SAG treated foregut spheroids is consistent with early transcriptional changes that occur during lung specification in mice.
# After differentiation into definitive endoderm, cells were incubated in foregut media with NOG, SB, 500 ng/mL FGF4 (R&D Systems), and 2 μM CHIR99021 (Chiron, Stemgent) for 4-6 days. After 4 days with treatment of growth factors, three-dimensional floating spheroids were present in the culture. Three-dimensional spheroids were transferred into Matrigel to support 3D growth as previously described (see, e.g., McCracken K W, et al., Nature Protocols; 2011 Nov. 10; 6(12):1920-8). Briefly, spheroids were embedded in a droplet of Matrigel (BD Bioscience #356237) in one well of a 24 well plate, and incubated at room temperature for 10 minutes. After the Matrigel solidified, foregut media with 1% Fetal bovine serum (FBS, CAT#: 16000-044, Life Technologies) or other growth factors and small molecules were overlaid and replaced every 4 days. Organoids were transferred into new Matrigel droplets every 10 to 15 days.
# RNA was extracted from monolayers, spheroids, and organoids using a MagMAX-96 Total RNA Isolation Kit (Life Technologies) and MAG Max Express (Applied Biosystems). RNA quantity and quality were determined spectrophotometrically, using a Nano Drop 2000 (Thermoscientific). Reverse transcription was conducted using the SuperScript VILO kit (Invitrogen), according to manufacturer's protocol. Finally, qRT-PCR was carried out using Quantitect Sybr Green MasterMix (Qiagen) on a Step One Plus Real-Time PCR system (Life Technologies).
# [3] = system: anterior foregut endoderm (hESC-derived, ActivinA then NOG/SB); assay: Immunofluorescence of NKX2.1 and PAX8 positive cells in foregut monolayer cultures; conditions: compared to endoderm and foregut controls
# Experimental: Importantly, immunofluorescence correlated with QRT-PCR data showing an increased number of NKX2.1+ cells with the addition of SAG only. […] SAG and SAG+SU treated cells also co-expressed FOXA2 and SOX2 confirming their endodermal origin (FIG. 2).
# as §1
# HLOs with P63+ cells were counted as having proximal airway-like epithelium and HLOs with SFTPC+ cells were counted as having distal airway-like epithelium. The area of proximal epithelium was determined by P63+ECAD+ staining. Area was measured using ImageJ software. Cell quantification of NKX2.1, P63, and DAPI was counted by Metamorph cell counting software. FOXJ1, SFTPC, and HOPX were counted in ImageJ using the cell counter plugin.
# [4] = system: NOG/SB/F/Ch/SAG treated foregut spheroids; assay: Expansion of foregut spheroids in Matrigel into lung organoids; conditions: FGF10 500 ng/mL, Matrigel 3D culture
# From the text: NOG/SB/F/Ch/SAG treated foregut spheroids were embedded in Matrigel to provide a 3D growth environment. Spheroids maintained in basal media supplemented with 1% FBS lost ECAD+ epithelial structures and were mainly comprised of mesenchyme within 20 days of 3D culture (FIG. 9D,E). FGF10 is essential for branching morphogenesis and maintenance of lung progenitor cells during development as well as tissue homeostasis in the adult lung (see, e.g., Motoyama J, et al., Nat Genet. 1998 September; 20(1):54-7; Li Y, et al., Developmental Biology. 2004 Jun. 1; 270(1):214-31; Bellusci S, et al., Development. 1997 January; 124(1):53-63; Min H, et al., Genes & Development. 1998 Oct. 15; 12(20):3156-61; Weaver M, et al., Development. 2000 June; 127(12):2695-704; Agha El E, et al., Development. 2013 Dec. 18; Volckaert T, et al., Development 2013 September; 140(18):3731-42). It was observed that the addition of FGF10 (500 ng/mL) allowed spheroids to expand and be passaged for over 100 days. FGF10 promoted the maintenance of ECAD+ epithelial structures with less mesenchymal contributions compared to both basal and FGF inhibitor conditions (FIG. 10D). […] SOX2+ domains and SOX9+ domains were distributed throughout the entire HLO as determined by whole mount immunofluorescence and confocal Z-sections (FIG. 14). […]
molecule,measurement,setting,value
Cc1c[nH]c(/C=C2\C(=O)Nc3ccccc32)c1CCC(=O)O [SU5402],GLI1 expression,[1]; compared to foregut controls,not significantly different
same,PTCH1 expression,[1]; compared to foregut controls,not significantly different
same,SHH expression,[1]; SU 10 μM,significant reduction
same,NKX2.1 expression,[1]; SU 10 μM,not significantly different
same,PAX8 expression,"[1]; SU 10 μM, SAG 1 μM",significant reduction
CNC1CCC(N(Cc2cccc(-c3ccncc3)c2)C(=O)c2sc3ccccc3c2Cl)CC1 (stereo not shown) [SAG],CDX2 transcript,[2],reduction
same,HHEX transcript,[2],not significantly different
same,NKX2.1 transcript,[2],significant increase
same,PAX8 transcript,[2],not significantly different
same,PDX1 transcript,[2],not significantly different
same,SOX2 transcript,[2],reduction
same,NKX2.1+ cells (immunohistochemistry),[3],more NKX2.1+ cells
same,increase of NKX2.1 expression,"[1]; foregut endoderm treated 8 days, SAG 1 μM, SU 10 μM, compared to untreated foregut controls",6.5 fold
same,PAX8 expression,"[1]; SU 10 μM, SAG 1 μM",unchanged
FGF2: fibroblast growth factor 2 (R&D systems),SHH expression,[1]; SU 10 μM,dose dependent increase
same,NKX2.1 expression,[1]; SU 10 μM,modest increase
same,PAX8 expression,"[1]; SU 10 μM, SAG 1 μM",dose dependent increase
Sant-2,NKX2.1 expression,[1]; SU 10 μM,significant reduction
"FGF10: protein that belongs to the fibroblast growth factor (FGF) family (protein, UniProt O15520 38-208, looked up) Fibroblast growth factor 10: QALGQDMVSPEATNSSSSSFSSPSSAGRHVRSYNHLQGDVRWRKLFSFTKYFLKIEKNGKVSGTKKENCPYSILEITSVEIGVVAVKAINSNYYLAMNKKGKLYGSKEFNNDCKLKERIEENGYNTYASFNWQHNGRQMYVALNGKGAPRRGQKTRRKNTSAHFLPMVVHS",time spheroids could expand and be passaged,[4],over 100 days
